# Test results reported in publication PMC6167049, “Structural and catalytic properties of the peroxygenase P450 enzyme CYP152K6 from Bacillus methanolicus” (Journal of Inorganic Biochemistry, 2018).
# Tests used:
# CYP152K6 [1] = target: T1, CYP152K6 (Bacillus methanolicus, UniProt I3DZK9); assay: X-band EPR and UV-visible spectroscopy; format: binding; conditions: ferric enzyme; EPR at 10 K, 1 and 2 mM ligand; UV-visible with 400 μM ligand, pH 8.0, 25 °C; H2O2-driven turnover also tested
# T1 construct: gene cypC; codon-optimised synthetic gene in pET24b, E. coli BL21 (DE3); N-terminal 6xHis-tag cut with TEV protease; monomer; 417 residues in crystal model; co-purifies with tetradecanoic acid
# CYP152K6 [2] = target: T1, CYP152K6; assay: X-ray crystal structure, […] Å; format: binding; conditions: co-purified from E. coli, bound above heme at Arg244; pH 8.0 protein buffer
# T1 sequence (I3DZK9 whole entry): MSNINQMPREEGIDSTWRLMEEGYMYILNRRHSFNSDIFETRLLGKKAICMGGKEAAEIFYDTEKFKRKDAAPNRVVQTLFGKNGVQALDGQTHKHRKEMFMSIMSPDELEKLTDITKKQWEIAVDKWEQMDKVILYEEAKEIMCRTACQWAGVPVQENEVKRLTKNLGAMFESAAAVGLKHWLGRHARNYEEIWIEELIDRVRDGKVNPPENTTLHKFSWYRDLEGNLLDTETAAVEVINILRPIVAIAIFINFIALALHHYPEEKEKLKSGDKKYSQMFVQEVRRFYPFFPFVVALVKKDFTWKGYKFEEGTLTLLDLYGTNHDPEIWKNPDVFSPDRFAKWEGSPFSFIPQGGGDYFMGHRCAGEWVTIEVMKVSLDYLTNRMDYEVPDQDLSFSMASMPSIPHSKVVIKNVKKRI
Structure (SMILES),X-band EPR and UV-visible spectroscopy (CYP152K6 [1]),"X-ray crystal structure, 1.3 Å (CYP152K6 [2])"
CCCCCCCCCCCC(=O)O [dodecanoic acid],the addition of dodecanoic acid alters the equilibria between the three major components,–
CCCCCCCCCCCCCC(=O)O [tetradecanoic acid],–,The final model of CYP152K6 in complex with tetradecanoic acid has been deposited
